The nature of experiment [1]: Sensory evaluation of cooling agent-containing fondants (location, intensity, onset speed of cooling sensation). Format: in vivo. Conditions: for Long-lasting mouth cooling / Long-lasting throat cooling / Predominant mouth cooling / Predominant throat cooling: in fondant at 0.03, 0.06 and 0.09 weight percent, approx. 0.5 gram dissolved in the mouth, six evaluators. The protocol: The cooling agents N-ethyl-2,2-diisopropylbutanamide and N,2,3-trimethyl-2-isopropylbutanamide were evaluated in fondant at concentrations of 0.03, 0.06, and 0.09 weight percent. The fondant base consisted of 85 weight percent 6X fondant sugar and 15 weight percent deionized water.
Sensory evaluations of the cooling agent-containing fondants were conducted by six evaluators, who observed the location, intensity, and onset speed of cooling sensation as they tasted approximately 0.5 gram of fondant by allowing it to dissolve in the mouth.

Experiment [2] can be described thus: Inventors' observations on bitterness and throat versus mouth cooling. Conditions: in vivo. The source says: The present inventors have observed that N-ethyl-2,2-diisopropylbutanamide is a particularly effective for throat soothing. […] The structures of N-ethyl-2,2-diisopropylbutanamide and N,2,3-trimethyl-2-isopropylbutanamide, which differ only by two methylene (—CH2—) groups, are shown below.

For experiment [3] the following is noted: menthol-containing lozenge; cited from earlier work.

On to `CCNC(=O)C(CC)(C(C)C)C(C)C` [Example 1, N-ethyl-2,2-diisopropylbutanamide], for which, in experiment [1], the Long-lasting mouth cooling result is listed as “No”, the Long-lasting throat cooling result is listed as “Yes”, the Predominant mouth cooling entry is on record as “No” and the Predominant throat cooling entry is “Yes”. Besides, the “Throat cooling relative to N,2,3-trimethyl-2-isopropylbutanamide” value in experiment [1] (when used in a candy system) was “superior and unexpected throat cooling”. Moreover, the “Location of cooling effect (throat versus mouth)” value in experiment [2] is given as “selectivity for throat cooling over mouth cooling”.

For the molecule `CNC(=O)C(C)(C(C)C)C(C)C` [Example 2, N,2,3-trimethyl-2-isopropylbutanamide], in experiment [1], the Long-lasting mouth cooling result is given as “No”, the Long-lasting throat cooling entry is given as “No”, the Predominant mouth cooling entry is listed as “Yes” and the Predominant throat cooling result was “No”. The “Location of cooling effect (throat versus mouth)” value in experiment [2] was “primarily in the mouth rather than the throat”.

Consider `CC1CCC(C(C)C)C(O)C1` (stereo not drawn) [menthol], for which the “Location of physiological cooling effect (throat versus mouth)” value in experiment [3] is listed as “felt primarily in the mouth rather than the throat”.

The values above are taken from US20130330396A1, “METHODS FOR THE TREATMENT OF THROAT DISCOMFORT” (INTERCONTINENTAL GREAT BRANDS LLC, priority 2009, published 2013).
